# In patent US11968990B2, “Creamer comprising vegetable lipids and allulose” (CJ CHEILJEDANG CORPORATION, priority 2016, dated 2024):
# What was measured:
# [1] = Fecal lipid excretion in C57BL/6J mice fed creamer-containing high fat diet with allulose for 8 weeks; type: in vivo
# Source text: (§1) 16 C57BL/6J mice (male, 4-week-old) were purchased from the Jackson Laboratory (USA) and used. The mice were allowed to adapt to the breeding environment with the lab-chow diet (Purina Co., USA) for 4 weeks. Then, the mice were divided, by using the randomized block design, into a negative control group (PR: 8 mice), in which allulose was not fed, and an experimental group (PRA: 8 mice), in which allulose was fed, and the mice were fed with diet for 8 weeks.
# For the diet of the negative control group, AIN-76 diet and HFD were applied, in which creamer [“Prima”, Dongsuh Foods Corporation, Korea; raw materials: 30-38 wt % of hydrogenated vegetable lipid (hydrogenated coconut oil, hydrogenated palm oil), starch syrup (including maltose), sodium caseinate, potassium phosphate dibasic, calcium phosphate tribasic] was used as the vegetable lipid. […]
# Among them, 200 μL each were collected for the measurement of cholesterol and free fatty acids and dried again under nitrogen gas, and those for the measurement of neutral lipid and total cholesterol were dissolved in 500 μL of ethanol. […] At the time of quantification of total cholesterol and neutral lipid, 3 mM cholic acid (sodium salt) as an emulsifier and 0.5% Triton X-100 (for removal of turbidity that occurs at the time of color development) were mixed and used.
# For the measurement of total cholesterol, 10 μL of the solution dissolved in ethanol (500 μL) and the emulsifier (690 μL) were mixed, and then 800 μL of a test solution (Asan Pharmaceutical kit) for measurement applying the enzyme method of Allain et al. (1974) was mixed. For quantification of both in forms of free cholesterol (FC) and cholesterol ester (CE), CE was converted to FC and fatty acid by cholesterol esterase. […] The obtained product and H2O2 as a substrate were reacted with peroxidase, phenol, and 4-amino-antipyrine to obtain a red coloring material, and then the absorbance was measured at 500 nm. The measured value was quantified by comparing with the cholesterol standard curve. […]
# [2] = Body weight of C57BL/6J mice fed creamer-containing high fat diet with allulose for 8 weeks; type: in vivo; settings: for Body weight: HFD + creamer + 5 wt % allulose (PRA), mean ± SE, in g (unit assumed)
# Source text: as §1
# For the diet of the negative control group, AIN-76 diet and HFD were applied, in which creamer [“Prima”, Dongsuh Foods Corporation, Korea; raw materials: 30-38 wt % of hydrogenated vegetable lipid (hydrogenated coconut oil, hydrogenated palm oil), starch syrup (including maltose), sodium caseinate, potassium phosphate dibasic, calcium phosphate tribasic] was used as the vegetable lipid. For the diet of the experimental group, 5 wt % of sugar among the components of the diet of the negative control group were replaced with allulose (crystal allulose, 98 wt % or higher of allulose based on dry solid content, CJ Cheiljedang) and used (Table 1). All animal experiments were conducted with the approval of the Ethical Commission for Animal Experimentation, Kyungpook National University (Approval No.: KNU-2013-18).
# Pair feeding was performed based on the experimental group so as to feed the same level of iso-energetic diet, and thereby the effect of calorie reduction by allulose was excluded. The diet was refrigerated at 4° C. during the breeding period. The mice were bred in individual cages under constant temperature (25±2° C.), constant humidity (50±5%), and dark-light cycles at 12 hour intervals.
# Dietary intake was measured at constant time every day, and body weight was measured at constant time every week.
# [3] = experimental group (PRA) compared to negative control group (PR)
smiles,measurement,setting,value
"O=C(CO)C(O)C(O)C(O)CO [allulose, Allulose (D-psicose)]",Excretion of lipid as feces,[1]; allulose ingested along with the vegetable lipid in creamer,promoted
same,Amount of free fatty acids in the feces vs negative control,[1]; [3],significantly increased
same,Amount of triglycerides in the feces vs negative control,[1]; [3],significantly increased
same,Body weight,[2]; 0 week of diet,21.47 ± 0.50
same,Body weight,[2]; 8th week of diet,27.41 ± 0.48
same,Inhibitory effect against weight gain,"[2]; experimental group (PRA) vs negative control (PR), from 1st week of diet, 8 weeks",significantly inhibited
